Experiments:
HCMV = test: Anti-HCMV cytopathogenicity test; format: cell-based, human cytomegalovirus; details: for EC50: Human betaherpesvirus 5, 144 h, inhibition of CPE by 50% in HCMV-infected HELF cells, M.O.I. 0.001–0.002, 6 days; for SI HCMV: selectivity index = CC50 (HELF)/EC50 (HCMV)
Procedure: (§1) Anti-HCMV (Anti-Human Cytomegalovirus) and anti-MCMV (Anti-Murine Cytomegalovirus) cytopathogenicity tests: The test compounds were employed as 50 millimolar (mM) solutions in dimethyl sulphoxide (DMSO). Ganciclovir, foscarnet and cidofovir served as reference compounds. Following the addition of in each case 2 μl of the 50, 5, 0.5 and 0.05 mM DMSO stock solutions to in each case 98μ of cell culture medium in row […], in duplicate determinations, 1:2 dilutions with in each case 50 μl of medium were prepared up to row 11 of the 96-well plate. The wells in rows 1 and 12 each contained 50 μl of medium. 150 μl of a suspension of 1×10^4 cells (human lung fibroblasts [HELF]) (row 1=cell control) or, in rows 2-12, a mixture of HCMV-infected and non-infected HELF cells (M.O.I.=0.001-0.002), i.e. 1-2 infected cells per 1000 non-infected cells, were then pipetted into each of the wells. Row 12 (without substance) served as virus control. The final test concentrations were 250-0.0005 μM. The plates were incubated at 37° C./5% CO2 for 6 days, i.e. until all cells in the virus controls had been infected (100% cytopathogenic effect [CPE]). The wells were then fixed and stained by adding a mixture of Formalin and Giemsa Stain (30 minutes), washed with doubly distilled water and dried in a drying cabinet at 50° C. The plates were then evaluated visually using an overhead microscope (plaque multiplier from Technomara). From the test plates, the following data were determined: EC50 (HCMV)=substance concentration in μM which inhibits the CPE (cytopathic effect) by 50% compared to the untreated virus control; SI (selectivity index)=CC50 (HELF)/EC50 (HCMV).

[1] = Cytotoxicity on 3T3 cells in the anti-MCMV cytopathogenicity test; format: cell-based; details: mouse, 3T3 mouse cells, 5 days incubation
Procedure: (§2) The test compounds were employed as 50 millimolar (mM) solutions in dimethyl sulphoxide (DMSO). Ganciclovir, foscarnet and cidofovir served as reference compounds. Following the addition of in each case 2 μl of the 50, 5, 0.5 and 0.05 mM DMSO stock solutions to in each case 98μ of cell culture medium in row 2 A-H, in duplicate determinations, 1:2 dilutions with in each case 50 μl of medium were prepared up to row 11 of the 96-well plate. The wells in rows 1 and 12 each contained 50 μl of medium. 150 μl of a suspension of 1×10^4 cells (human lung fibroblasts [HELF]) (row 1=cell control) or, in rows 2–12, a mixture of HCMV-infected and non-infected HELF cells (M.O.I.=0.001–0.002), i.e. 1–2 infected cells per 1000 non-infected cells, were then pipetted into each of the wells. Row 12 (without substance) served as virus control. The final test concentrations were 250–0.0005 μM. The plates were incubated at 37° C./5% CO2 for 6 days, i.e. until all cells in the virus controls had been infected (100% cytopathogenic effect [CPE]). The wells were then fixed and stained by adding a mixture of Formalin and Giemsa Stain (30 minutes), washed with doubly distilled water and dried in a drying cabinet at 50° C. The plates were then evaluated visually using an overhead microscope (plaque multiplier from Technomara).
CC50 (HELF)=substance concentration in μM at which, compared to the untreated cell control, no visible cytostatic effects on the cells were noticeable;
(§3) Compared to the process described above for HCMV, the anti-MCMV test was carried out with the following changes: a cell-free virus suspension was mixed with a concentrated cell suspension (3T3 mouse cells) and incubated for 15 minutes for adsorption of the viruses, and the suspension was then diluted with medium to 1.3×10^5 cells/ml with a final multiplicity of infection (M.O.I.) of from 0.05–0.1, and in each case 150 μl were dispensed into the wells. The incubation time was 5 days.

MCMV = test: Anti-MCMV cytopathogenicity test; format: cell-based, murine cytomegalovirus; details: for EC50: Murid betaherpesvirus 1, 120 h, MCMV-infected 3T3 mouse cells, M.O.I. 0.05–0.1, 5 days; for SI MCMV: selectivity index, 3T3 CC50 / MCMV EC50
Procedure: Anti-HCMV (Anti-Human Cytomegalovirus) and anti-MCMV (Anti-Murine Cytomegalovirus) cytopathogenicity tests:
as §2, §3

[2] = Cytotoxicity on HELF cells in the anti-HCMV cytopathogenicity test; format: cell-based; details: human lung fibroblasts (HELF cells), 6 days incubation, visual evaluation
Procedure: as §1, with “The” for “Anti-HCMV (Anti-Human Cytomegalovirus) and anti-MCMV (Anti-Murine Cytomegalovirus) cytopathogenicity tests: The”, “CC50 (HELF)=substance” for “EC50 (HCMV)=substance”, “at which,” for “which inhibits the CPE (cytopathic effect) by 50%”, “cell control, no visible cytostatic effects on the cells were noticeable;” for “virus control; SI (selectivity index)=CC50 (HELF)/EC50 (HCMV).”

| Compound | EC50 (HCMV) | SI HCMV (HCMV) | CC50 at 5 days [1] | EC50 (MCMV) | SI MCMV (MCMV) | CC50 at 6 days [2] |
| --- | --- | --- | --- | --- | --- | --- |
| CC(C)(CF)C(=O)Nc1cccc(NS(=O)(=O)c2ccc(-c3noc(-c4cccc(N)n4)n3)cc2)c1 [Example 135, N-{3-[({4-[5-(6-Amino-2-pyridinyl)-1,2,4-oxadiazol-3-yl]phenyl}sulphonyl)amino]-phenyl}-3-fluoro-2,2-dimethylpropanamide] | 5.2 nM | 9039 | 3 µM | 11 nM | 273 | 47 µM |
| Cc1nc(-c2nc(-c3ccc(S(=O)(=O)Nc4cccc(NC(=O)C5(C)CC5)c4)cc3)no2)cs1 [Example 11, 1-Methyl-N-{3-[({4-[5-(2-methyl-1,3-thiazol-4-yl)-1,2,4-oxadiazol-3-yl]phenyl}-sulphonyl)amino]phenyl}cyclopropanecarboxamide] | 15 nM | >1040 | > 12 µM | 2 nM | >5850 | > 16 µM |
| CC1(C(=O)Nc2cccc(NS(=O)(=O)c3ccc(-c4noc(-c5csc(N)n5)n4)cc3)c2)CC1 [Example 4] | 10 nM | >6300 | 11 µM | 15 nM | 733 | > 63 µM |
| CN(C)c1cccc(-c2nc(-c3ccc(S(=O)(=O)Nc4cccc(NC(=O)C5(C)CC5)c4)cc3)no2)c1 [Example 2, N-(3-{[(4-{5-[3-(Dimethylamino)phenyl]-1,2,4-oxadiazol-3-yl}phenyl)sulphonyl]-amino}phenyl)-1-methylcyclopropanecarboxamide] | 50 nM | <320 | 0.9 µM | 45 nM | 20 | < 16 µM |
| CC(=O)Nc1cccc(-c2nc(-c3ccc(S(=O)(=O)Nc4cccc(NC(=O)C5(C)CC5)c4)cc3)no2)n1 [Example 132, N-(3-{[(4-{5-[6-(Acetylamino)-2-pyridinyl]-1,2,4-oxadiazol-3-yl}phenyl)sulphonyl]-amino}phenyl)-1-methylcyclopropanecarboxamide] | 6 nM | 7833 | 2.3 µM | 3 nM | 767 | 47 µM |
| CC1(C(=O)Nc2cccc(NS(=O)(=O)c3ccc(-c4noc(-c5nccc6ccccc56)n4)cc3)c2)CC1 [Example 10, N-{3-[({4-[5-(1-Isoquinolinyl)-1,2,4-oxadiazol-3-yl]phenyl}sulphonyl)-amino]phenyl}-1-methylcyclopropanecarboxamide] | 8 nM | >488 | > 7.8 µM | 7 nM | >975 | > 3.9 µM |
| CC1(C(=O)Nc2cccc(NS(=O)(=O)c3ccc(-c4noc(-c5cscn5)n4)cc3)c2)CC1 [Example 7, 1-Methyl-N-{3-[({4-[5-(1,3-thiazol-4-yl)-1,2,4-oxadiazol-3-yl]phenyl}sulphonyl)-amino]phenyl}cyclopropanecarboxamide] | 25 nM | 1880 | 12 µM | 25 nM | 480 | 47 µM |
| CC1(C(=O)Nc2ccc(NS(=O)(=O)c3cccc(-c4nnc(-c5ccccn5)s4)c3)cc2)CC1 [Example 131, 1-Methyl-N-{4-[({3-[5-(2-pyridinyl)-1,3,4-thiadiazol-2-yl]phenyl}sulphonyl)amino]phenyl}cyclopropanecarboxamide] | 20 nM | >1555 | – | – | – | > 28 µM |
| Cc1cc(-c2nc(-c3ccc(S(=O)(=O)Nc4cccc(NC(=O)C5(C)CC5)c4)cc3)no2)nn1C [Example 8, N-{3-[({4-[5-(1,5-Dimethyl-1H-pyrazol-3-yl)-1,2,4-oxadiazol-3-yl]phenyl}-sulphonyl)amino]phenyl}-1-methylcyclopropanecarboxamide] | 20 nM | >110 | > 3.9 µM | 24 nM | >163 | > 2.2 µM |
| Cc1cc(-c2nc(-c3ccc(S(=O)(=O)Nc4cccc(NC(=O)C5(C)CC5)c4)cc3)no2)[nH]n1 [Example 6, 1-Methyl-N-{3-[({4-[5-(3-methyl-1H-pyrazol-5-yl)-1,2,4-oxadiazol-3-yl]phenyl}-sulphonyl)amino]phenyl}cyclopropanecarboxamide] | 20 nM | 2053 | 2.9 µM | 41 nM | 71 | 39 µM |
| CC1(C(=O)Nc2cccc(NS(=O)(=O)c3ccc(-c4noc(-c5cccc(N)n5)n4)cc3)c2)CC1 [Example 134, N-{3-[({4-[5-(6-Amino-2-pyridinyl)-1,2,4-oxadiazol-3-yl]phenyl}sulphonyl)amino]-phenyl}-1-methylcyclopropanecarboxamide] | 9 nM | 10444 | 8 µM | 4.7 nM | 1617 | 94 µM |
| CC(C)(CF)C(=O)Nc1ccc(NS(=O)(=O)c2cccc(-c3noc(-c4ccccc4)n3)c2)cc1 [Example 13, 3-Fluoro-2,2-dimethyl-N-[4-({[3-(5-phenyl-1,2,4-oxadiazol-3-yl)phenyl]sulphonyl}-amino)phenyl]propanamide] | 40 nM | <200 | < 16 µM | 30 nM | <533 | < 8 µM |
| Cc1cccc(-c2nc(-c3ccc(S(=O)(=O)Nc4cccc(NC(=O)C5(C)CC5)c4)cc3)no2)n1 [Example 5, 1-Methyl-N-{3-[({4-[5-(6-methyl-2-pyridinyl)-1,2,4-oxadiazol-3-yl]phenyl}-sulphonyl)amino]phenyl}cyclopropanecarboxamide] | 16 nM | >1000 | > 31 µM | 14 nM | >2214 | > 16 µM |
